Assay results published in patent publication US7276493B2, “Fungicide for treating plants” (Valent BioSciences Corporation, priority 2003, dated 2007).

Key:
Botrytis cinerea [1] = experiment: Detached bean leaf bioassay, fungal control; format: in vivo; conditions: detached bean leaf (Phaseolus vulgaris), three days after inoculation, 100 minus percent necrotic area
Protocol: Compound solution: Compound solutions were prepared by diluting compound stock solutions (1.0% w/v compound in DMSO) to 200 ppm with 0.01% w/v Triton X-100.
Spore solution preparation: Botrytis cinerea spores were taken from 6-week-old cultures grown at 22C on full strength potato dextrous agar (PDA) plates and harvested in 1:16 frozen orange juice concentrate:water. Botrytis cinerea spore solutions were prepared by diluting spore cultures to 5×10^4 spores/mL with 1:16 frozen orange juice concentrate:water.
Plant material: Middle trifoliate leaves of greenhouse grown Phaseolus vulgaris (Bush bean cv. Blue Lake 274) were excised and placed on a plastic grid above a tray containing moist towels.
Treatment method: One half of the adaxial surface of the leaf was treated with the compound solution (100:L) using a 3 cm Bacti Cell Spreader. A blank consisted of 0.01% w/v Triton X-100. A commercial fungicide control (200 ppm diluted with water) consisted of Scala. […]
Fungal control rating: Three days after inoculation with Botrytis, the percent necrotic area under the inoculation droplet was determined. Since the areas under the blank (0.01% w/v Triton X-100) were 100% infected, fungal control was expressed as 100 minus the percent necrotic area, and thus 0% infected is 100% fungal control (n=3 leaves/compound, 5 inoculation droplets/leaf, Table 2).

[2] = system: Phaseolus vulgaris (Bush bean cv. Blue Lake 274); experiment: Detached bean leaf bioassay, phytotoxicity rating; format: in vivo
Protocol: Compound solution: Compound solutions were prepared by diluting compound stock solutions (1.0% w/v compound in DMSO) to 200 ppm with 0.01% w/v Triton X-100. Plant material: Middle trifoliate leaves of greenhouse grown Phaseolus vulgaris (Bush bean cv. Blue Lake 274) were excised and placed on a plastic grid above a tray containing moist towels. Treatment method: One half of the adaxial surface of the leaf was treated with the compound solution (100:L) using a 3 cm Bacti Cell Spreader. A blank consisted of 0.01% w/v Triton X-100. A commercial fungicide control (200 ppm diluted with water) consisted of Scala. After the solutions dried, the trays containing the leaves were covered and held one day in a growth chamber (22C). The adaxial surfaces of the leaves were then inoculated with 5–60:L droplets of Botrytis cinerea spore solution. Phytotoxicity ratings: Phytotoxicity was rated as 0=no phytotoxicity, 1=slight phytotoxicity, 2=moderate phytotoxicity, or 3=excessive phytotoxicity (Table 2).

Botrytis cinerea [3] = experiment: Contact evaluation (microtiter plate); format: cell-based; design: key: Full: fungal inhibition was rated as full, partial, or none; Partial: fungal inhibition was rated as full, partial, or none; None: fungal inhibition was rated as full, partial, or none
Protocol: (§1) Compound solution: Contact evaluations were conducted to determine the anti-fungal activity of each compound against Botrytis cinerea, Sclerotinia sclerotiorum, Pythium aphanidermatum, Rhizoctonia solani, Cercospora arachidicola, Mycosphaerella fijiensis, and Monilinia laxa. Five milligrams of each compound were dissolved in 0.5 milliliter of DMSO for a compound stock solution of 1.0% w/v. Compound stock solutions were serial diluted with DMSO to 20, 10, and 2 ppm final well concentration. Fungi preparation: Botrytis cinerea spores were taken from 6-week-old cultures grown at 22C on full strength potato dextrous agar (PDA) plates. Sclerotinia sclerotiorum, Pythium aphanidermatum, Rhizoctonia solani, and Monilinia laxa mycelia were taken from 4- to 10-day-old shake flask cultures grown at room temperature on full strength potato dextrous broth (PDB). Cercospora arachidicola mycelia were taken from 10- to 14-day-old shake flask cultures grown at room temperature on a full strength PDB amended with peanut oil. Mycosphaerella fijiensis mycelia were taken from 10- to 14-day-old shake flask cultures grown at room temperature on V8 juice broth. Sclerotinia sclerotiorum, Pythium aphanidermatum, Rhizoctonia solani, Cercospora arachidicola, and Mycosphaerella fijiensis mycelia (0.4 g mycelia) were blended for 45 seconds in 20 mL sterile de-ionized water. Monilinia laxa mycelia (1 g mycelia) was blended for 45 seconds in 30 mL of sterile de-ionized water. Botrytis cinerea spores were diluted with quarter strength PDB to 1×10^5 spores/mL final well concentration. All mycelia were diluted in water (1:5 mycelia:water) before distributing into the wells. Microtiter plate preparation: Compound solution (10:L), quarter strength PDB (900:L) and fungi preparation (100:L) were sequentially distributed into 48-well microtiter plates (n=3 replications/compound/rate). A blank consisted of quarter strength PDB and fungi preparation. Commercial fungicide controls (100 ppm diluted with water) consisted of Scala for Botrytis cinerea, Dithane F-45 for Mycosphaerella fijiensis, and Benlate for Sclerotinia sclerotiorum, Pythium aphanidermatum, Rhizoctonia solani, Cercospora arachidicola, and Monilinia laxa. Plates were shaken in a circular rotator at room temperature for 20 minutes, then incubated at 25C for 24 to 72 hours, depending on the pathogen. Fungal control ratings: Fungal growth in wells containing the compounds were compared to the positive control and fungal inhibition was rated as full, partial, or none. Final readings were the average of the three wells (Table 1).

Rhizoctonia solani = experiment: Contact evaluation (microtiter plate); format: cell-based; design: key: Full: fungal inhibition was rated as full, partial, or none; Partial: fungal inhibition was rated as full, partial, or none; None: fungal inhibition was rated as full, partial, or none; conditions: Rhizoctinia solani
Protocol: as §1

Mycosphaerella fijiensis = experiment: Contact evaluation (microtiter plate); format: cell-based; design: key: Full: fungal inhibition was rated as full, partial, or none; Partial: fungal inhibition was rated as full, partial, or none; None: fungal inhibition was rated as full, partial, or none
Protocol: as §1

Cercospora arachidicola = experiment: Contact evaluation (microtiter plate); format: cell-based; design: key: Full: fungal inhibition was rated as full, partial, or none; Partial: fungal inhibition was rated as full, partial, or none; None: fungal inhibition was rated as full, partial, or none
Protocol: as §1

Pythium aphanidermatum = experiment: Contact evaluation (microtiter plate); format: cell-based; design: key: Full: fungal inhibition was rated as full, partial, or none; Partial: fungal inhibition was rated as full, partial, or none; None: fungal inhibition was rated as full, partial, or none
Protocol: as §1

Sclerotinia sclerotiorum = experiment: Contact evaluation (microtiter plate); format: cell-based; design: key: Full: fungal inhibition was rated as full, partial, or none; Partial: fungal inhibition was rated as full, partial, or none; None: fungal inhibition was rated as full, partial, or none; conditions: Sclerotinia sclerotionum
Protocol: as §1

Monilinia laxa = experiment: Contact evaluation (microtiter plate); format: cell-based; design: key: Full: fungal inhibition was rated as full, partial, or none; Partial: fungal inhibition was rated as full, partial, or none; None: fungal inhibition was rated as full, partial, or none
Protocol: as §1

C/C1=C\C=C\CCC(C)CNC(=O)/C=C/C=C/C(C)C(O)C/C=C(\C)C1 (centres unmarked) [formula I]
31%: Botrytis cinerea control (200 ppm) (Botrytis cinerea [1])
Full: Control of fungi (full, partial, none) (Botrytis cinerea [3]; fungicide rate 2 ppm) | Control of fungi (full, partial, none) (Botrytis cinerea [3]; fungicide rate 10 ppm) | Control of fungi (full, partial, none) (Botrytis cinerea [3]; fungicide rate 20 ppm) | Control of fungi (full, partial, none) (Rhizoctonia solani; fungicide rate 2 ppm) | Control of fungi (full, partial, none) (Rhizoctonia solani; fungicide rate 10 ppm) | Control of fungi (full, partial, none) (Rhizoctonia solani; fungicide rate 20 ppm) | Control of fungi (full, partial, none) (Mycosphaerella fijiensis; fungicide rate 2 ppm) | Control of fungi (full, partial, none) (Mycosphaerella fijiensis; fungicide rate 10 ppm) | Control of fungi (full, partial, none) (Mycosphaerella fijiensis; fungicide rate 20 ppm) | Control of fungi (full, partial, none) (Cercospora arachidicola; fungicide rate 2 ppm) | Control of fungi (full, partial, none) (Cercospora arachidicola; fungicide rate 10 ppm) | Control of fungi (full, partial, none) (Cercospora arachidicola; fungicide rate 20 ppm) | Control of fungi (full, partial, none) (Pythium aphanidermatum; fungicide rate 2 ppm) | Control of fungi (full, partial, none) (Pythium aphanidermatum; fungicide rate 10 ppm) | Control of fungi (full, partial, none) (Pythium aphanidermatum; fungicide rate 20 ppm) | Control of fungi (full, partial, none) (Sclerotinia sclerotiorum; fungicide rate 2 ppm) | Control of fungi (full, partial, none) (Sclerotinia sclerotiorum; fungicide rate 10 ppm) | Control of fungi (full, partial, none) (Sclerotinia sclerotiorum; fungicide rate 20 ppm) | Control of fungi (full, partial, none) (Monilinia laxa; fungicide rate 2 ppm) | Control of fungi (full, partial, none) (Monilinia laxa; fungicide rate 10 ppm) | Control of fungi (full, partial, none) (Monilinia laxa; fungicide rate 20 ppm)
None: Phytotoxity (200 ppm) [2]
